# Data published in patent US20210277246A1, “PROBE FOR DETECTING CARBAPENEM-RESISTANT BACTERIA AND USE THEREOF” (priority 2018, published 2021).
# Legend:
# [1] = test system: Citrobacter freundii (NDM); test: MIC of carbapenems for isolates; type: cell-based; conditions: 1 isolate
# [2] = test system: Morganella morganii (NDM); test: MIC of carbapenems for isolates; type: cell-based; conditions: 1 isolate
# [3] = test system: Klebsiella pneumoniae (GES); test: MIC of carbapenems for isolates; type: cell-based; conditions: 1 isolate
# [4] = test system: Klebsiella pneumoniae (NDM); test: MIC of carbapenems for isolates; type: cell-based; conditions: 1 isolate
# [5] = test system: Klebsiella aerogenes (non-CP-CRE); test: MIC of carbapenems for isolates; type: cell-based; conditions: 3 isolates
# [6] = test system: Enterobacter amnigenus (non-CP-CRE); test: MIC of carbapenems for isolates; type: cell-based; conditions: Lelliottia amnigena, 4 isolates
# [7] = test system: Citrobacter freundii (OXA); test: MIC of carbapenems for isolates; type: cell-based; conditions: 1 isolate
# Escherichia coli (IMP) = test: MIC of carbapenems for isolates; type: cell-based; conditions: 1 isolate
# [8] = test system: Citrobacter freundii (KPC); test: MIC of carbapenems for isolates; type: cell-based; conditions: 1 isolate
# Escherichia coli (NDM) = test: MIC of carbapenems for isolates; type: cell-based; conditions: 4 isolates
# [9] = test system: Klebsiella pneumoniae (NDM/OXA); test: MIC of carbapenems for isolates; type: cell-based; conditions: NDM/OXA co-producing, 1 isolate
# Klebsiella oxytoca (VIM) = test: MIC of carbapenems for isolates; type: cell-based; conditions: 1 isolate
# Escherichia coli (KPC) = test: MIC of carbapenems for isolates; type: cell-based; conditions: 3 isolates
# [10] = test system: Enterobacter cloacae (NDM); test: MIC of carbapenems for isolates; type: cell-based; conditions: 2 isolates
# [11] = test system: Enterobacter cloacae (VIM); test: MIC of carbapenems for isolates; type: cell-based; conditions: 1 isolate
# [12] = test system: Klebsiella pneumoniae (OXA); test: MIC of carbapenems for isolates; type: cell-based; conditions: 2 isolates
# [13] = test system: Klebsiella aerogenes (KPC); test: MIC of carbapenems for isolates; type: cell-based; conditions: 1 isolate
# [14] = test system: Klebsiella pneumoniae (ESBL-producer, CTX-M); test: MIC of carbapenems for isolates; type: cell-based; conditions: 24 isolates
# [15] = test system: Klebsiella pneumoniae (non-CP-CRE); test: MIC of carbapenems for isolates; type: cell-based; conditions: 22 isolates
# [16] = test system: Escherichia coli (non-CP-CRE); test: MIC of carbapenems for isolates; type: cell-based; conditions: 8 isolates
# [17] = test system: Escherichia coli (non-producer); test: MIC of carbapenems for isolates; type: cell-based; conditions: 32 isolates
# Escherichia coli (OXA) = test: MIC of carbapenems for isolates; type: cell-based; conditions: 3 isolates
# Klebsiella oxytoca (KPC) = test: MIC of carbapenems for isolates; type: cell-based; conditions: 1 isolate
# [18] = test system: Klebsiella pneumoniae (VIM); test: MIC of carbapenems for isolates; type: cell-based; conditions: 1 isolate
# [19] = test system: Klebsiella pneumoniae (non-producer); test: MIC of carbapenems for isolates; type: cell-based; conditions: 21 isolates
# [20] = test system: Citrobacter freundii (non-CP-CRE); test: MIC of carbapenems for isolates; type: cell-based; conditions: 1 isolate
# GES [21] = test: Fluorogenic assay (OMCL01203 probe); type: biochemical; conditions: Klebsiella pneumoniae, 1 isolate
# Experimental: (§1) Briefly, 10 μL of a sample was lysed with a Tris-HCl buffer (B-PER, Thermo Scientific Pierce) and then vortexed for 1 minute. After culturing for 30 minutes at room temperature and centrifuging for 5 minutes (10,000 g), 30 μL of the supernatant was reacted with 100 μL of PBS and 13 μL of the fluorescent probe (1 mM). Then, fluorescence was measured for 50 minutes with 5-minute intervals using a fluorescence plate reader (Infinite F200pro, Tecan Group Ltd.).
# (§2) In addition, the detection efficiency of the fluorescence detection method using the OMCL01203 probe was compared for carbapenemase-producing carbapenem-resistant bacteria (CP-CRE) and non-carbapenemase-producing carbapenem-resistant bacteria (non-CP-CRE) with mCIM, CarbaNP and CIT methods.
# OXA [22] = test: Fluorogenic assay (OMCL01203 probe); type: biochemical; conditions: Escherichia coli, 3 isolates, number of isolates in brackets
# Experimental: as §1, §2
# [23] = test system: CPE (carbapenemase-producing Enterobacteriaceae); test: Fluorescent probe detection in lysed clinical isolates; type: biochemical; conditions: CPE total; 61 isolates
# Experimental: (§3) The detection efficiency of carbapenemase-producing carbapenem-resistant bacteria of a control probe OMCL01201 (CPC-1 described in Chinese Patent Publication No. CN106279178A) and the OMCL01203 probe of the present disclosure was evaluated at Gangnam St. Mary's Hospital for the bacteria described in Table 1.
# as §1
# Non-CP CRE = test: as above; type: biochemical
# Experimental: as §3, §1
# KPC/OXA [24] = test: as above; type: biochemical, Enterobacteriaceae; conditions: KPC/OXA co-producing; 2 isolates
# Experimental: as §3, §1
# NDM [25] = test: as above; type: biochemical, Enterobacteriaceae; conditions: Ambler class B, 9 isolates
# Experimental: as §3, §1
# GES [26] = test: as above; type: biochemical, Enterobacteriaceae; conditions: Ambler class A, 2 isolates
# Experimental: as §3, §1
# KPC [27] = test: as above; type: biochemical, Enterobacteriaceae; conditions: Ambler class A, 33 isolates
# Experimental: as §3, §1
# NDM/OXA [28] = test: as above; type: biochemical, Enterobacteriaceae; conditions: NDM/OXA co-producing; 1 isolate
# Experimental: as §3, §1
# VIM [29] = test: as above; type: biochemical, Enterobacteriaceae; conditions: Ambler class B, 7 isolates
# Experimental: as §3, §1
# OXA [30] = test: as above; type: biochemical, Enterobacteriaceae; conditions: Ambler class D, 6 isolates
# Experimental: as §3, §1
# IMP [31] = test: as above; type: biochemical, Enterobacteriaceae; conditions: Ambler class B, 1 isolate
# Experimental: as §3, §1
# [32] = test system: non-CPE (negative bacteria); test: Fluorogenic assay (OMCL01203 probe), all non-CPE of Table 2; type: biochemical
# Experimental: as §1, §2
# KPC/OXA [33] = test: Fluorogenic assay (OMCL01203 probe); type: biochemical; parameters: key: Pos, positive; Neg, negative; conditions: KPC/OXA co-producing; Klebsiella pneumoniae; 2 isolates
# Experimental: as §1, §2
# NDM [34] = test: Fluorogenic assay (OMCL01203 probe); type: biochemical; parameters: key: Pos, positive; Neg, negative
# Experimental: as §1, §2
# non-producer = test: Fluorogenic assay (OMCL01203 probe); type: biochemical; parameters: key: Pos, positive; Neg, negative
# Experimental: as §1, §2
# non-CP-CRE = test: Fluorogenic assay (OMCL01203 probe); type: biochemical; parameters: key: Pos, positive; Neg, negative
# Experimental: as §1, §2
# GES [35] = test: Fluorogenic assay (OMCL01203 probe); type: biochemical; parameters: key: Pos, positive; Neg, negative; conditions: Escherichia coli, 2 isolates
# Experimental: as §1, §2
# KPC [36] = test: Fluorogenic assay (OMCL01203 probe); type: biochemical; parameters: key: Pos, positive; Neg, negative
# Experimental: as §1, §2
# NDM/OXA [37] = test: Fluorogenic assay (OMCL01203 probe); type: biochemical; parameters: key: Pos, positive; Neg, negative; conditions: NDM/OXA co-producing; Klebsiella pneumoniae; 1 isolate
# Experimental: as §1, §2
# VIM [38] = test: Fluorogenic assay (OMCL01203 probe); type: biochemical; parameters: key: Pos, positive; Neg, negative
# Experimental: as §1, §2
# OXA [39] = test: Fluorogenic assay (OMCL01203 probe); type: biochemical; parameters: key: Pos, positive; Neg, negative
# Experimental: as §1, §2
# CTX-M (ESBL-producer) = test: Fluorogenic assay (OMCL01203 probe); type: biochemical; parameters: key: Pos, positive; Neg, negative
# Experimental: as §1, §2
# IMP [40] = test: Fluorogenic assay (OMCL01203 probe); type: biochemical; parameters: key: Pos, positive; Neg, negative; conditions: Escherichia coli, 1 isolate
# Experimental: as §1, §2
# [41] = Citrobacter freundii, 1 isolate
# [42] = Klebsiella pneumoniae, 1 isolate
compound,measurement,setting,value
"C[C@@H](O)[C@H]1C(=O)N2C(C(=O)O)=C(S[C@@H]3CN[C@H](C(=O)N(C)C)C3)[C@H](C)[C@H]12 [MEM, meropenem]",MIC,[1],16 µg/mL
same,MIC,[2],4 µg/mL
same,MIC,[3],> 16 µg/mL
same,MIC,[4],> 16 µg/mL
same,MIC,[5],0.5 to 16 µg/mL
same,MIC,[6],2 to 8 µg/mL
same,MIC,[7],0.5 µg/mL
same,MIC,Escherichia coli (IMP),1 µg/mL
same,MIC,[8],8 µg/mL
same,MIC,Escherichia coli (NDM),> 16 µg/mL
same,MIC,[9],4 µg/mL
same,MIC,Klebsiella oxytoca (VIM),1 µg/mL
same,MIC,Escherichia coli (KPC),4 µg/mL
same,MIC,[10],> 16 µg/mL
same,MIC,[11],2 µg/mL
same,MIC,[12],0.5 to 16 µg/mL
same,MIC,[13],16 µg/mL
same,MIC,[14],≤ 0.25 µg/mL
same,MIC,[15],0.5 to 8 µg/mL
same,MIC,[16],0.25 to 8 µg/mL
same,MIC,[17],≤ 0.25 µg/mL
same,MIC,Escherichia coli (OXA),0.25 to 4 µg/mL
same,MIC,Klebsiella oxytoca (KPC),> 16 µg/mL
same,MIC,[18],> 16 µg/mL
same,MIC,[19],≤ 0.25 µg/mL
same,MIC,[20],0.5 µg/mL
C[C@@H](O)[C@H]1C(=O)N2C(C(=O)O)=C(COc3ccc(COc4ccc5ccc(=O)oc5c4)cc3)[C@H](C)[C@H]12 [OMCL01203],Fluore result,GES [21],Neg(1)
same,Fluore result,OXA [22]; isolates testing negative,Neg(2)
same,Fluore result,OXA [22]; isolates testing positive,Pos(1);
same,Pos. %,[23],97%
same,result(s) (isolates determined positive),[23],59
same,Pos. %,"Non-CP CRE; Non-CP CRE, 40 isolates",0%
same,result(s) (isolates determined positive),"Non-CP CRE; Non-CP CRE, 40 isolates",0
same,determination of non-CPE species,Non-CP CRE; all 40 non-CPE species,negative
same,Pos. %,KPC/OXA [24],100%
same,result(s) (isolates determined positive),KPC/OXA [24],2
same,Pos. %,NDM [25],89%
same,result(s) (isolates determined positive),NDM [25],8
same,Pos. %,GES [26],100%
same,result(s) (isolates determined positive),GES [26],2
same,Pos. %,KPC [27],100%
same,result(s) (isolates determined positive),KPC [27],33
same,Pos. %,NDM/OXA [28],100%
same,result(s) (isolates determined positive),NDM/OXA [28],1
same,Pos. %,VIM [29],100%
same,result(s) (isolates determined positive),VIM [29],7
same,Pos. %,OXA [30],83%
same,result(s) (isolates determined positive),OXA [30],5
same,Pos. %,IMP [31],100%
same,result(s) (isolates determined positive),IMP [31],1
same,determination of negative bacteria,[32],negative
same,Fluore result,KPC/OXA [33],Pos
same,Fluore result,NDM [34]; [41],Pos
same,Fluore result,"NDM [34]; Enterobacter cloacae, 2 isolates",Pos
same,Fluore result,"NDM [34]; Escherichia coli, 4 isolates",Pos
same,Fluore result,NDM [34]; [42],Pos
same,Fluore result,"NDM [34]; Morganella morganii, 1 isolate",Pos
same,Fluore result,"non-producer; Escherichia coli, 32 isolates",Neg
same,Fluore result,"non-producer; Klebsiella pneumoniae, 21 isolates",Neg
same,Fluore result,non-CP-CRE; [41],Neg
same,Fluore result,"non-CP-CRE; Enterobacter amnigenus, 4 isolates",Neg
same,Fluore result,"non-CP-CRE; Enterobacter cloacae, 10 isolates",Neg
same,Fluore result,"non-CP-CRE; Escherichia coli, 8 isolates",Neg
same,Fluore result,"non-CP-CRE; Klebsiella aerogenes, 3 isolates",Neg
same,Fluore result,"non-CP-CRE; Klebsiella pneumoniae, 22 isolates",Neg
same,Fluore result,GES [35],Pos
same,Fluore result,KPC [36]; [41],Pos
same,Fluore result,"KPC [36]; Escherichia coli, 3 isolates",Pos
same,Fluore result,"KPC [36]; Klebsiella aerogenes, 1 isolate",Pos
same,Fluore result,"KPC [36]; Klebsiella oxytoca, 1 isolate",Pos
same,Fluore result,"KPC [36]; Klebsiella pneumoniae, 30 isolates",Pos
same,Fluore result,NDM/OXA [37],Pos
same,Fluore result,"VIM [38]; Citrobacter freundii, 4 isolates",Pos
same,Fluore result,"VIM [38]; Enterobacter cloacae, 1 isolate",Pos
same,Fluore result,"VIM [38]; Klebsiella oxytoca, 1 isolate",Pos
same,Fluore result,VIM [38]; [42],Pos
same,Fluore result,OXA [39]; [41],Pos
same,Fluore result,"OXA [39]; Klebsiella pneumoniae, 2 isolates",Pos
same,Fluore result,"CTX-M (ESBL-producer); Escherichia coli, 29 isolates",Neg
same,Fluore result,"CTX-M (ESBL-producer); Klebsiella pneumoniae, 24 isolates",Neg
same,Fluore result,IMP [40],Pos
